{"source": "paper PMC7326275", "about": "(PLoS Pathogens, 2020)", "key": {"[1]": {"tested_on": "B (D197N) virus (B/Singapore/GP702/2015)", "set-up": "species or system ferret; AUC (total area under the viral shedding curve, raw data): unit not given beside the values", "details": "in vivo"}, "[2]": {"tested_on": "H1N1pdm09 (H275Y) virus", "set-up": "species or system Cynomolgus macaques (Macaca fascicularis)", "details": "cynomolgus monkey, in vivo"}, "[3]": {"tested_on": "H3N2 (E119V) virus (A/Fukui/45/2004)", "set-up": "species or system ferret; AUC (total area under the viral shedding curve, raw data): unit not given beside the values", "details": "in vivo"}, "[4]": {"tested_on": "B (H273Y) virus (B/Perth/265/2015)", "set-up": "species or system ferret; AUC (total area under the viral shedding curve, raw data): unit not given beside the values", "details": "in vivo"}, "[5]": {"tested_on": "H1N1 (H275Y) virus (A/Mississippi/3/2001 clone)", "set-up": "species or system ferret; AUC (total area under the viral shedding curve, raw data): unit not given beside the values", "details": "in vivo"}, "[6]": {"tested_on": "H1N1pdm09 (H275Y) virus (A/Perth/261/2009)", "set-up": "species or system ferret; AUC (total area under the viral shedding curve, raw data): unit not given beside the values", "details": "in vivo"}}, "note": "Marks after values point to notes of the source that are not given here.", "data": [{"smiles": "CCOC(=O)C1=C[C@@H](OC(CC)CC)[C@H](NC(C)=O)[C@@H](N)C1", "note": "[OST, oseltamivir]", "values": [{"measurement": "% Ferrets Infected", "setting": "[1]", "value": "100 (4/4) %"}, {"measurement": "AUC (total area under the viral shedding curve, raw data)", "setting": "[1]", "value": "12.6 ± 2.3"}, {"measurement": "Activity loss clinical score", "setting": "[1]", "value": "1 (key: ≤20; 21–40; 2: 41–60; 3: >60)"}, {"measurement": "Duration of Shedding", "setting": "[1]", "value": "4.2 ± 1.0", "unit": "days"}, {"measurement": "Nasal inflammation Cell score", "setting": "[1]", "value": "0 (key: <1X10^6; 1 to 2 x10^6; 2.1 to 4 x10^6; 3: >4x10^6)"}, {"measurement": "Nasal inflammation Protein score", "setting": "[1]", "value": "0 (key: <500; 500–1000; 2: 1001–1500; 3: >1500)"}, {"measurement": "Peak Viral Titre", "setting": "[1]", "value": "4.5 ± 0.5", "unit": "Log10 TCID50/ml"}, {"measurement": "Temperature clinical score", "setting": "[1]", "value": "0 (key: 0: <1; 1.1–1.5; 1.5–2.0; 3: >2.0)"}, {"measurement": "Total Score (clinical signs)", "setting": "[1]", "value": 1}, {"measurement": "Weight loss clinical score", "setting": "[1]", "value": 0}, {"measurement": "viral titre on the single day with significant difference to placebo", "setting": "[1]", "value": "4.1 ± 0.4", "unit": "Log10 TCID50/ml"}, {"measurement": "body weight or temperature, OST- vs placebo-treated animals", "setting": "[2]", "value": "no significant differences"}, {"measurement": "lower viral titre in tracheal lavages of OST dosed macaques on Day 3", "setting": "[2]", "value": "not observed"}, {"measurement": "viral titres in nasal wash and tracheal lavages, OST vs placebo", "setting": "[2]", "value": "not significantly different"}, {"measurement": "% Ferrets Infected", "setting": "[3]", "value": "62 (5/8) %"}, {"measurement": "AUC (total area under the viral shedding curve, raw data)", "setting": "[3]", "value": "6.0 ± 7.7"}, {"measurement": "Activity loss clinical score", "setting": "[3]", "value": "0 (key: ≤20; 21–40; 2: 41–60; 3: >60)"}, {"measurement": "Duration of Shedding", "setting": "[3]", "value": "3.8 ± 0.5", "unit": "days"}, {"measurement": "Nasal inflammation Cell score", "setting": "[3]", "value": "0 (key: <1X10^6; 1 to 2 x10^6; 2.1 to 4 x10^6; 3: >4x10^6)"}, {"measurement": "Nasal inflammation Protein score", "setting": "[3]", "value": "0 (key: <500; 500–1000; 2: 1001–1500; 3: >1500)"}, {"measurement": "Peak Viral Titre", "setting": "[3]", "value": "4.8 ± 0.4", "unit": "Log10 TCID50/ml"}, {"measurement": "Temperature clinical score", "setting": "[3]", "value": "0 (key: 0: <1; 1.1–1.5; 1.5–2.0; 3: >2.0)"}, {"measurement": "Total Score (clinical signs)", "setting": "[3]", "value": 0}, {"measurement": "Weight loss clinical score", "setting": "[3]", "value": 0}, {"measurement": "% Ferrets Infected", "setting": "[4]", "value": "100 (4/4) %"}, {"measurement": "AUC (total area under the viral shedding curve, raw data)", "setting": "[4]", "value": "13.5 ± 1.0"}, {"measurement": "Activity loss clinical score", "setting": "[4]", "value": "1 (key: ≤20; 21–40; 2: 41–60; 3: >60)"}, {"measurement": "Duration of Shedding", "setting": "[4]", "value": "5.2 ± 0.5", "unit": "days"}, {"measurement": "Nasal inflammation Cell score", "setting": "[4]", "value": "0 (key: <1X10^6; 1 to 2 x10^6; 2.1 to 4 x10^6; 3: >4x10^6)"}, {"measurement": "Nasal inflammation Protein score", "setting": "[4]", "value": "0 (key: <500; 500–1000; 2: 1001–1500; 3: >1500)"}, {"measurement": "Peak Viral Titre", "setting": "[4]", "value": "3.8 ± 0.6", "unit": "Log10 TCID50/ml"}, {"measurement": "Temperature clinical score", "setting": "[4]", "value": "0 (key: 0: <1; 1.1–1.5; 1.5–2.0; 3: >2.0)"}, {"measurement": "Total Score (clinical signs)", "setting": "[4]", "value": 1}, {"measurement": "Weight loss clinical score", "setting": "[4]", "value": 0}, {"measurement": "% Ferrets Infected", "setting": "[5]", "value": "100 (4/4) %"}, {"measurement": "AUC (total area under the viral shedding curve, raw data)", "setting": "[5]", "value": "18.2 ± 4.3"}, {"measurement": "Activity loss clinical score", "setting": "[5]", "value": "3 (key: ≤20; 21–40; 2: 41–60; 3: >60)"}, {"measurement": "Duration of Shedding", "setting": "[5]", "value": "5.2 ± 1.25", "unit": "days"}, {"measurement": "Nasal inflammation Cell score", "setting": "[5]", "value": "1 (key: <1X10^6; 1 to 2 x10^6; 2.1 to 4 x10^6; 3: >4x10^6)"}, {"measurement": "Nasal inflammation Protein score", "setting": "[5]", "value": "0 (key: <500; 500–1000; 2: 1001–1500; 3: >1500)"}, {"measurement": "Peak Viral Titre", "setting": "[5]", "value": "4.6± 0.5", "unit": "Log10 TCID50/ml"}, {"measurement": "Temperature clinical score", "setting": "[5]", "value": "2 (key: 0: <1; 1.1–1.5; 1.5–2.0; 3: >2.0)"}, {"measurement": "Total Score (clinical signs)", "setting": "[5]", "value": 7}, {"measurement": "Weight loss clinical score", "setting": "[5]", "value": "1 (key: 0: Weight increase or no change; 1–3; 2: 3–6; 3: >6)"}, {"measurement": "% Ferrets Infected", "setting": "[6]", "value": "100 (4/4) %"}, {"measurement": "AUC (total area under the viral shedding curve, raw data)", "setting": "[6]", "value": "23.4 ± 4.4"}, {"measurement": "Activity loss clinical score", "setting": "[6]", "value": "3 (key: ≤20; 21–40; 2: 41–60; 3: >60)"}, {"measurement": "Duration of Shedding", "setting": "[6]", "value": "6.0 ± 1.4", "unit": "days"}, {"measurement": "Nasal inflammation Cell score", "setting": "[6]", "value": "3 (key: <1X10^6; 1 to 2 x10^6; 2.1 to 4 x10^6; 3: >4x10^6)"}, {"measurement": "Nasal inflammation Protein score", "setting": "[6]", "value": "3 (key: <500; 500–1000; 2: 1001–1500; 3: >1500)"}, {"measurement": "Peak Viral Titre", "setting": "[6]", "value": "5.2 ± 0.6", "unit": "Log10 TCID50/ml"}, {"measurement": "Temperature clinical score", "setting": "[6]", "value": "3 (key: 0: <1; 1.1–1.5; 1.5–2.0; 3: >2.0)"}, {"measurement": "Total Score (clinical signs)", "setting": "[6]", "value": 15}, {"measurement": "Weight loss clinical score", "setting": "[6]", "value": "3 (key: 0: Weight increase or no change; 1–3; 2: 3–6; 3: >6)"}]}]}
